Assays:
[1] = in vitro; conditions: human, CC50, uninfected A549 cells, CellTiter-Glo
[2] = test system: Influenza strain A549 A/WSN/33 (H1N1); assay: microbe, parasite or virus in culture; assay type: cell-based; conditions: Influenza A virus, A549, 20 h, A549 cells, influenza A/WSN/33 (H1N1), 20 hours incubation; read-out: A549_A(H1N1) EC50

SMILES	CC50 [1]	EC50 [2]
CC[C@@H]1/C=C/COc2cccc3c2[C@H](c2ccccc2SC3)N2CN1C(=O)c1c(O)c(=O)ccn12 [Compound 92AB, (9R,17aR,E)-9-ethyl-12-hydroxy-2,6,9,17a-tetrahydro-3,4-(epiprop[1]en[1]yl[3]ylidene)-10,17-methanobenzo[6,7]thiepino[4,5-c]pyrido[1,2-f][1]oxa[5,6,9]triazacyclotridecine-11,13-dione]	> 1000 nM	> 500 nM
O=C1c2c(O)c(=O)ccn2N2CN1CC/C=C/COc1c(ccc(Cl)c1Cl)[C@@H]2c1ccccc1 (single isomer, unassigned) [Compound 111A, (2*S,*E)-33,34-dichloro-15-hydroxy-2-phenyl-12,13,14,16-tetrahydro-11H-4-oxa-1(1,3)-pyrido[2,1-f][1,2,4]triazina-3(1,2)-benzenacyclononaphan-6-ene-14,16-dione]	> 200 nM	4.3 nM
O=C1c2c(O)c(=O)ccn2N2CN1CC/C=C\COc1c(ccc(F)c1F)[C@@H]2c1ccccc1 (single isomer, unassigned) [Compound 116A, (2*S,Z)-33,34-difluoro-15-hydroxy-2-phenyl-12,13,14,16-tetrahydro-11H-4-oxa-1(1,3)-pyrido[2,1-f][1,2,4]triazina-3(1,2)-benzenacyclononaphan-6-ene-14,16-dione]	> 200 nM	14 nM
O=C1c2c(O)c(=O)ccn2N2CN1C1(/C=C/COc3cccc4c3[C@H]2c2ccccc2SC4)CCCC1 (single isomer, unassigned) [Compound 156A, (17a′*S,*E)-12′-hydroxy-2′,17a′-dihydro-6′H-spiro[cyclopentane-1,9′-[3,4](epiprop[1]en[1]yl[3]ylidene)[10,17]methanobenzo[6,7]thiepino[4,5-c]pyrido[1,2-f][1]oxa[5,6,9]triazacyclotridecine]-11′,13′-dione]	> 100 nM	0.51 nM
O=C1c2c(O)c(=O)ccn2N2CN1C/C=C\COc1ccccc1[C@@H]2c1cccnc1 (single isomer, unassigned) [Compound 26B, (18*S,*Z)-12-hydroxy-18-(pyridin-3-yl)-6,9-dihydro-18H-10,17-methanobenzo[b]pyrido[1,2-f][1]oxa[5,6,9]triazacyclotridecine-11,13-dione]	> 4000 nM	40100 nM
CC[C@@H]1/C=C\COc2cc(F)c(F)c3c2[C@@H](c2ccccc2SC3)N2CN1C(=O)c1c(O)c(=O)ccn12 (single isomer, unassigned) [Compound 126BB, (13*R,21a*S,Z)-13-ethyl-24,25-difluoro-16-hydroxy-6,10,13,21a-tetrahydro-7,8-(epiprop[1]en[1]yl[3]ylidene)-14,21-methanobenzo[6,7]thiepino[4,5-c]pyrido[1,2-f][1]oxa[5,6,9]triazacyclotridecine-15,17-dione]	> 200 nM	1 nM
COC[C@@H]1/C=C/COc2c(ccc(F)c2F)[C@@H](c2ccccc2)N2CN1C(=O)c1c(O)c(=O)ccn12 (single isomer, unassigned) [Compound 153BA, (9*S,18*R,*E)-3,4-difluoro-12-hydroxy-9-(methoxymethyl)-18-phenyl-6,9-dihydro-18H-10,17-methanobenzo[b]pyrido[1,2-f][1]oxa[5,6,9]triazacyclotridecine-11,13-dione]	> 100 nM	4.2 nM
C[C@@H]1C/C=C/COc2c(F)cccc2[C@H](c2ccccc2)N2CN1C(=O)c1c(O)c(=O)ccn12 (single isomer, unassigned) [Compound 100BB, (2*S,9*R,*E)-33-fluoro-15-hydroxy-9-methyl-2-phenyl-12,13,14,16-tetrahydro-11H-4-oxa-1(1,3)-pyrido[2,1-f][1,2,4]triazina-3(1,2)-benzenacyclononaphan-6-ene-14,16-dione]	32500 nM	1160 nM
O=C1c2c(O)c(=O)ccn2N2CN1C/C=C\CCc1ncccc1[C@@H]2c1ccccc1 (single isomer, unassigned) [Compound 24B, (18*S,*Z)-12-hydroxy-18-phenyl-5,6,9,18-tetrahydro-10,17-methanodipyrido[1,2-b:2′,3′-k][1,2,5]triazacyclotridecine-11,13-dione]	> 1000 nM	1530 nM
O=C1c2c(O)c(=O)ccn2N2CN1C/C=C\COc1c(ccc(F)c1F)[C@H]2c1ccccc1C(F)F (single isomer, unassigned) [Compound 165A, (18*R,Z)-18-(2-(difluoromethyl)phenyl)-3,4-difluoro-12-hydroxy-6,9-dihydro-18H-10,17-methanobenzo[b]pyrido[1,2-f][1]oxa[5,6,9]triazacyclotridecine-11,13-dione]	> 100 nM	7.2 nM
O=C1c2c(O)c(=O)ccn2N2CN1CC/C=C/CCc1ccccc1C2c1ccccc1 (stereo not shown) [Compound 14, (*E)-15-hydroxy-2-phenyl-12,13,14,16-tetrahydro-11H-1(1,3)-pyrido[2,1-f][1,2,4]triazina-3(1,2)-benzenacyclononaphan-6-ene-14,16-dione]	> 4000 nM	48 nM
O=C1c2c(O)c(=O)ccn2N2CN1CCCCOc1ccccc1C2c1ccccc1 (stereo not shown) [Compound 8, 12-hydroxy-18-phenyl-6,7,8,9-tetrahydro-18H-10,17-methanobenzo[b]pyrido[1,2-f][1]oxa[5,6,9]triazacyclotridecine-11,13-dione]	> 2000 nM	59 nM
O=C1c2c(O)c(=O)ccn2N2CN1C1(/C=C/COc3c(ccc(F)c3F)[C@H]2c2ccccc2)CC1 [Compound 102A, (18′R,E)-3′,4′-difluoro-12′-hydroxy-18′-phenyl-6′H,18′H-spiro[cyclopropane-1,9′-[10,17]methanobenzo[b]pyrido[1,2-f][1]oxa[5,6,9]triazacyclotridecine]-11′,13′-dione]	> 100 nM	0.9 nM
COC[C@@H]1/C=C/COc2ccccc2[C@H](c2ccccc2)N2CN1C(=O)c1c(O)c(=O)ccn12 (single isomer, unassigned) [Compound 150B, (9*S,18*S,*E)-12-hydroxy-9-(methoxymethyl)-18-phenyl-6,9-dihydro-18H-10,17-methanobenzo[b]pyrido[1,2-f][1]oxa[5,6,9]triazacyclotridecine-11,13-dione]	> 10000 nM	3260 nM
CC(C)(C)[C@H]1/C=C/COc2cccc3c2[C@@H](c2ccccc2SC3)N2CN1C(=O)c1c(O)c(=O)ccn12 (single isomer, unassigned) [Compound 157A, (9*R,17a*S,*E)-9-(tert-butyl)-12-hydroxy-2,6,9,17a-tetrahydro-3,4-(epiprop[1]en[1]yl[3]ylidene)-10,17-methanobenzo[6,7]thiepino[4,5-c]pyrido[1,2-f][1]oxa[5,6,9]triazacyclotridecine-11,13-dione]	> 100 nM	1.3 nM
CC[C@H]1/C=C/COc2ccccc2[C@H](c2ccccc2)N2CN1C(=O)c1c(O)c(=O)ccn12 [Compound 39AB, (9S,18S,E)-9-ethyl-12-hydroxy-18-phenyl-6,9-dihydro-18H-10,17-methanobenzo[b]pyrido[1,2-f][1]oxa[5,6,9]triazacyclotridecine-11,13-dione]	> 2000 nM	> 1000 nM
O=C1c2c(O)c(=O)ccn2N2CN1C/C=C/COc1cccc3c1[C@H]2c1ccccc1SC3 [Compound 46D, (17S,E)-12-hydroxy-2,6,9,17a-tetrahydro-3,4-(epiprop[1]en[1]yl[3]ylidene)-10,17-methanobenzo[6,7]thiepino[4,5-c]pyrido[1,2-f][1]oxa[5,6,9]triazacyclotridecine-11,13-dione]	> 200 nM	1 nM
Cc1cccc2c1OC/C=C\CN1CN([C@@H]2c2ccccc2)n2ccc(=O)c(O)c2C1=O (single isomer, unassigned) [Compound 110B, (18*R,Z)-12-hydroxy-4-methyl-18-phenyl-6,9-dihydro-18H-10,17-methanobenzo[b]pyrido[1,2-f][1]oxa[5,6,9]triazacyclotridecine-11,13-dione]	> 200 nM	> 100 nM
O=C1c2c(O)c(=O)ccn2N2CN1C/C=C\COc1c(cccc1C(F)(F)F)[C@@H]2c1ccccc1 (single isomer, unassigned) [Compound 130B, (18*S,Z)-12-hydroxy-18-phenyl-4-(trifluoromethyl)-6,9-dihydro-18H-10,17-methanobenzo[b]pyrido[1,2-f][1]oxa[5,6,9]triazacyclotridecine-11,13-dione]	> 200 nM	> 100 nM
O=C1c2c(O)c(=O)ccn2N2CN1CC/C=C\COc1cc(F)c(F)c3c1[C@@H]2c1ccccc1SC3 (single isomer, unassigned) [Compound 88A, (23b*R, Z)-16,17-difluoro-6-hydroxy-10,13,18,23b-tetrahydro-9H-1,8-methano[1]benzothiepino[5,4,3-lm]pyrido[2,1-i][1,7,10,11]benzoxatriazacyclotetradecine-5,7-dione]	> 1000 nM	> 500 nM
O=C1c2c(O)c(=O)ccn2N2CN1C[C@H]1C[C@@H](COc3cccc4c3[C@H]2c2ccccc2SC4)C1 (single isomer, unassigned) [Compound 161B]	> 100 nM	15 nM
O=C1c2c(O)c(=O)ccn2N2CN1CCC/C=C\c1cccc3c1[C@H]2c1ccccc1CC3 [Compound 31B, (19bR,Z)-4-hydroxy-8,9,15,19b-tetrahydro-7H,14H-13,12-(epiprop[1]en[1]yl[3]ylidene)-6,20-methanobenzo[3,4]cyclohepta[1,2-1]pyrido[1,2-b][1,2,5]triazacyclotridecine-3,5-dione]	> 2000 nM	4 nM
O=C1c2c(O)c(=O)ccn2N2CN1CCCCOc1c(ccc(F)c1F)[C@H]2c1ccccc1 (single isomer, unassigned) [Compound 115A, (18*R)-3,4-difluoro-12-hydroxy-18-phenyl-6,7,8,9-tetrahydro-18H-10,17-methanobenzo[b]pyrido[1,2-f][1]oxa[5,6,9]triazacyclotridecine-11,13-dione]	> 200 nM	> 100 nM
